What all share (test): selectivity profiling in a panel of 340 wild-type kinases (Reaction Biology Europe)
Common to all, as to assay type: binding

The target of assay [1] is T1, 340 wild-type kinases (Homo sapiens, UniProt Q9NZJ5).
T1 construct: purchased Reaction Biology Europe
T1 sequence (Q9NZJ5 30-1116): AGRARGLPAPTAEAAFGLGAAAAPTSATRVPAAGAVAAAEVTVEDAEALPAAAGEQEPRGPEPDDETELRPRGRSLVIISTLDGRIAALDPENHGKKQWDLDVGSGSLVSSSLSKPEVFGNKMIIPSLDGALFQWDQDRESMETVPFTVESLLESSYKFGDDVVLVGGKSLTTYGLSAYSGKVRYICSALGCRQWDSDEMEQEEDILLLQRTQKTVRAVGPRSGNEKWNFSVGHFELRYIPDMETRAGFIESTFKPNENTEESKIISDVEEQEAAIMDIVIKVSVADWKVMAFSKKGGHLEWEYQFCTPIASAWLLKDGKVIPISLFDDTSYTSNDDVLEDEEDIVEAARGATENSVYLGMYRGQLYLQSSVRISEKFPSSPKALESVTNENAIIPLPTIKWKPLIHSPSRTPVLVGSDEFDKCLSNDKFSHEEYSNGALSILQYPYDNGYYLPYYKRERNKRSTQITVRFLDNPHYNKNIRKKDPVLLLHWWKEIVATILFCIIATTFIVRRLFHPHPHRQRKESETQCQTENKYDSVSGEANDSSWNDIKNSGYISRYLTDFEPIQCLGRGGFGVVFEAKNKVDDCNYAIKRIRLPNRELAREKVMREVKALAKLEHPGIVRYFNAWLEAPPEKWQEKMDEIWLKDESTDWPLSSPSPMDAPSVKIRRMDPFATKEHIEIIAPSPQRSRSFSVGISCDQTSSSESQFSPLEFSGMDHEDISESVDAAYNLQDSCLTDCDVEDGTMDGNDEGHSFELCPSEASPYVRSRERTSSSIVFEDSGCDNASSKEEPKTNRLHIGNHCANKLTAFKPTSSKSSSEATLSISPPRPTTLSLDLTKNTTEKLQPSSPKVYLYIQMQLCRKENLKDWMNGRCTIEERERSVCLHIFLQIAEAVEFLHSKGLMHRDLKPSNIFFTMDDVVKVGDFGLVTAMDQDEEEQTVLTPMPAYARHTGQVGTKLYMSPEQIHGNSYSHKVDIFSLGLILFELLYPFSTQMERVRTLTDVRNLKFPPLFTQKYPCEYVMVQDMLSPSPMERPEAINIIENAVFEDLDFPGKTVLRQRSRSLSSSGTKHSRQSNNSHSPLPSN

Assay [2] deals with T2, 340 wild-type kinases (Homo sapiens, UniProt O75914).
T2 construct: purchased Reaction Biology Europe
T2 sequence (O75914 whole entry): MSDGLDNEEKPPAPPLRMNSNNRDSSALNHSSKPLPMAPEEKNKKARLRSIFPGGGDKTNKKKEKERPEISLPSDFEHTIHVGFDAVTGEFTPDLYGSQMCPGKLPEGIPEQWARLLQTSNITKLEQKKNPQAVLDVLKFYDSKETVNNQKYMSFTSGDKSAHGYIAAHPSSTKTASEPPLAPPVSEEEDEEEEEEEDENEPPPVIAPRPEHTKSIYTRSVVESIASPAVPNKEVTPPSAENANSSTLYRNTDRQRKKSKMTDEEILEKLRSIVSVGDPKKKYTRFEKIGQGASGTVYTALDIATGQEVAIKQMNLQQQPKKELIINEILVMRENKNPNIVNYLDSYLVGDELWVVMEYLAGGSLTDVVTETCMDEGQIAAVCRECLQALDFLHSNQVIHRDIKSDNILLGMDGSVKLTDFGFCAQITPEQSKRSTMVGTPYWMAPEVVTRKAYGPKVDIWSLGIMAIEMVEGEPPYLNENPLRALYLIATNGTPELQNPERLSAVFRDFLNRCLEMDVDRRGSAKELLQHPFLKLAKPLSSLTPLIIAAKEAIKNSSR

Assay [3] deals with T3, 340 wild-type kinases (Homo sapiens, UniProt P45984).
T3 construct: purchased Reaction Biology Europe
T3 sequence (P45984 whole entry): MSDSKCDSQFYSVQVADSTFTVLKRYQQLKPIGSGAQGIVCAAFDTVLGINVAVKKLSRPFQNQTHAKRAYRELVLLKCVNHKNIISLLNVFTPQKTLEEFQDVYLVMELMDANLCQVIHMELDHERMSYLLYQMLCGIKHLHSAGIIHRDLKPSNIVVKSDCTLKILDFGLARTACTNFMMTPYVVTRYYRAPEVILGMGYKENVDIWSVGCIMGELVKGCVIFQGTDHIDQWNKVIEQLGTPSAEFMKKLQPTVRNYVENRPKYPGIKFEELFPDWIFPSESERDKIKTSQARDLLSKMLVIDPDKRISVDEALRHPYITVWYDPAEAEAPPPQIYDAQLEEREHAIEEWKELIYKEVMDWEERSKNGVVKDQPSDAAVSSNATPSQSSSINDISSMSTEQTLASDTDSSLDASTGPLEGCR

Assay [4] concerns the target T4, 340 wild-type kinases (Homo sapiens, UniProt P09619).
T4 construct: purchased Reaction Biology Europe

Assay [5] addresses T5, 340 wild-type kinases (Homo sapiens, UniProt Q04771).
T5 construct: purchased Reaction Biology Europe
T5 sequence (Q04771 21-509): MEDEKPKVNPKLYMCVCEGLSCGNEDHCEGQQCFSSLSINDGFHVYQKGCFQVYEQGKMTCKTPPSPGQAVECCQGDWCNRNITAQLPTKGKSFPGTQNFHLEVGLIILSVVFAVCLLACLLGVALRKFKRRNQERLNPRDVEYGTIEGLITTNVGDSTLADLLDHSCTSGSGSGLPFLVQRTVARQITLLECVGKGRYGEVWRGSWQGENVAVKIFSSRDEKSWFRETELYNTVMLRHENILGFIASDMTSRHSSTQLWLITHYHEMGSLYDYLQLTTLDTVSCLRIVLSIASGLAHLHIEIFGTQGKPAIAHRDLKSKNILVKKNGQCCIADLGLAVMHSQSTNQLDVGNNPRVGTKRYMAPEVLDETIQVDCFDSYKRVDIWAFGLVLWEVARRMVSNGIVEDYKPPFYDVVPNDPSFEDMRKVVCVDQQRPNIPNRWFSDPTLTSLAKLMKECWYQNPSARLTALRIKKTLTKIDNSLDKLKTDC

Assay [6] addresses T6, 340 wild-type kinases (Homo sapiens, UniProt P42345).
T6 construct: purchased Reaction Biology Europe

Read-outs that look alike come from different tables or passages of the source.

T4 sequence (P09619 33-1106): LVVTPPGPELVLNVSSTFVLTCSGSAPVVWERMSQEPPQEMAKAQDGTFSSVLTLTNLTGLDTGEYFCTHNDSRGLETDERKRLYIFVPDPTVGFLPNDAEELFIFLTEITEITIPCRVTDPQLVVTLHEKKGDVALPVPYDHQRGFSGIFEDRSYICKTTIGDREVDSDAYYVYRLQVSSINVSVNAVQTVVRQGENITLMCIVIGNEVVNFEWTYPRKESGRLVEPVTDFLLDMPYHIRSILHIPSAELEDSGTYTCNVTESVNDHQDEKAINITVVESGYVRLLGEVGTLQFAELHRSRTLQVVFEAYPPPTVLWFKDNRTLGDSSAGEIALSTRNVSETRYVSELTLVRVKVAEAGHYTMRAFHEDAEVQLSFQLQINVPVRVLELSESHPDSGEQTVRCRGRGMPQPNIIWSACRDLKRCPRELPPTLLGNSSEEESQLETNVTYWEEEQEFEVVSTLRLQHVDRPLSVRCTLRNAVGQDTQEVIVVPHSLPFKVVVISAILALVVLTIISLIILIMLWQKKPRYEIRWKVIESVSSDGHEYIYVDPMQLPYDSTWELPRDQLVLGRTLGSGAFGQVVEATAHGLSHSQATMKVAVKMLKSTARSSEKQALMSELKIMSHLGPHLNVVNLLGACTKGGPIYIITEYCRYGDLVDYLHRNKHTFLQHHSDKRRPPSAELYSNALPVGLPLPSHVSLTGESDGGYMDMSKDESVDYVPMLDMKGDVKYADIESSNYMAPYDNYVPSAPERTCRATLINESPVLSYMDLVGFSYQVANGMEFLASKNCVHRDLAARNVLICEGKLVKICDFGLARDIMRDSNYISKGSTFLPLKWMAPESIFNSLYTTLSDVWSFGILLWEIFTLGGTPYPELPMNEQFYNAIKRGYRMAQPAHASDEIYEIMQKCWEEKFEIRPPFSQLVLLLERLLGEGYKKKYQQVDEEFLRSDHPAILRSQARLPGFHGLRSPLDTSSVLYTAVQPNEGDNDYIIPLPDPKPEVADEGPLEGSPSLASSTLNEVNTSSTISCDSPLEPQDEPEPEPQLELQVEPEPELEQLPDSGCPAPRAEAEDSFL

Consider `CNC(=O)c1ccc2c(c1)C(=O)c1ccc(Nc3ccc(F)c(NC(=O)C4CC4)c3)cc1CC2` [Compound 2015], for which the remaining activity at 1 µM was found to be 86.3% in assay [1] (1 µM 2015, read-out: EIF2AK3 residual activity); 86.3% in assay [1] (EIF2AK3, 1 µM, read-out: residual activity); 96.3% in assay [2] (1 µM 2015, read-out: PAK3 residual activity); 96.3% in assay [2] (PAK3, 1 µM, read-out: residual activity); 40.4% in assay [3] (1 µM 2015, read-out: JNK2 residual activity); 40.4% in assay [3] (JNK2, 1 µM, read-out: residual activity). Also, the remaining activity at 1 µM in assay [4] (1 µM 2015, read-out: PDGFRbeta residual activity) was 101%; in assay [4] (PDGFRbeta, 1 µM, read-out: residual activity) it was 101%; in assay [5] (1 µM 2015, read-out: ACVR1 residual activity) it was 96.8%; in assay [5] (ACVR1, 1 µM, read-out: residual activity), 96.8%; in assay [6] (1 µM 2015, read-out: MTOR residual activity) it was 101%; in assay [6] (MTOR, 1 µM, read-out: residual activity), 101%. The remaining activity at 0.2 µM is 93.3% in assay [1] (EIF2AK3, 0.2 µM, read-out: residual activity); 97.6% in assay [2] (0.2 µM 2015, read-out: PAK3 residual activity); 97.6% in assay [2] (PAK3, 0.2 µM, read-out: residual activity); 61.1% in assay [3] (0.2 µM 2015, read-out: JNK2 residual activity); 61.1% in assay [3] (JNK2, 0.2 µM, read-out: residual activity); 101% in assay [4] (0.2 µM 2015, read-out: PDGFRbeta residual activity). In addition, the remaining activity at 0.2 µM turned out to be 101% in assay [4] (PDGFRbeta, 0.2 µM, read-out: residual activity); 88.7% in assay [5] (0.2 µM 2015, read-out: ACVR1 residual activity); 88.7% in assay [5] (ACVR1, 0.2 µM, read-out: residual activity); 97.9% in assay [6] (0.2 µM 2015, read-out: MTOR residual activity); 97.9% in assay [6] (MTOR, 0.2 µM, read-out: residual activity). In addition, the “effect on JNK2 (in words)” value in assay [3] (panel of 340 kinases, 1 µM and 0.2 µM) is given as “moderate influence”.

The record behind these values is PMC11864979, “First-in-class ultralong-target-residence-time p38α inhibitors as a mitosis-targeted therapy for colorectal cancer” (Nature Cancer, 2025).
